The target in one series is T1, μ opioid receptor (MOR) (Homo sapiens, UniProt P35372).
T1 construct: host or cells: HEK293
Nature of the series: cell-based. The note with it: HEK293 stably expressing μ opioid receptor, FLIPR calcium. On the procedure: The purpose of the experiment was to test the agonistic effects of the compounds of the present invention on μ opioid receptor (MOR), κ opioid receptor (KOR) and δ opioid receptor (DOR), and to evaluate in vitro activity of the compounds according to the half-maximal effect concentration (EC50).
This test was performed using HEK293 cell lines (the stably expressed cell lines were provided by WuXi AppTec) which stably expressed μ opioid receptor, δ opioid receptor or κ opioid receptor respectively. […] The cells were centrifuged at 1000 rpm for 5 minutes at room temperature to precipitate. The supernatant was sucked out, be careful not to suck out cells. The precipitate was flicked into the loose cells and resuspend in 45 ml DMEM medium. The Vi-CELL XR automatic cell viability detector (BECKMAN COULTER) was used to count the cells, and the cell concentration was adjusted to 10×10^5 cells/ml based on the counting results.
Preparation of probenecid mother solution: 1 ml of FLIPR test solution was added to 77 mg probenecid to prepare a 250 mM solution. The solution was freshly prepared just before use.
The solution was freshly prepared just before use.
The cell plate prepared above was removed from the incubator and 20 ul 2× Fluo-4 Direct™ buffer was added thereto. The final volume in the cell plate was […]. The plate was incubated at 37° C., under 5% CO2 for 50 minutes, and incubated at room temperature for 10 minutes, then was placed into the FLIPR instrument (MD), and the compound plate and pipette box was placed into. The protocol was run on the […] platform, 10 μl of positive drug or the test compound was transfered to the cell plate from the compound plate, and the fluorescent signal was read.
The signal value generated by each well was calculated, and the calculation formula was that: the activity %=(signal value of the test compound−signal value of the solvent)/(signal value of the positive drug−signal value of the solvent).

The target in series [1] is T2, cAMP pathway of MOR receptor (Homo sapiens, UniProt P35372).
T2 construct: host or cells: HEK293 (cAMP Hunter cell line)
Nature of the series: cell-based. The note with it: cAMP Hunter HEK293 cells, forskolin-induced cAMP; read-out: EC50 of cAMP levels affected by agonistic effect on MOR. From the text:
The purpose of this experiment was to test the agonistic effect of the compounds of the invention on the cAMP pathway of MOR and to evaluate the in vitro activity of the compounds according to EC50.
In this experiment, HitHunter cAMP Assay EFC technology of DiscoverX was used to measure the cAMP level in cells and monitor the functional status of G-protein coupled receptors (GPCRs).
The amount of signal produced was directly proportional to the amount of cAMP in the cell.
The MOR receptor was bound to the inhibitory Gαi protein, so forskolin (for inducing cAMP signal) was used to induce cAMP expression in the experiment, and the inhibitory effect of the compounds on the above induction was measured.
The cAMP Hunter cell line (HEK293, DiscoverX) was removed from the freezer and expanded according to the Cell Standard Operating Procedure (SOP), 20 μL was collected and inoculated into a 384-well microplate and incubated at 37° C. overnight.
The HitHunter cAMP Assay test kit (DiscoverX, 90-0075sm) was used, the kit contained cAMP buffer, cAMP detection solution, and cAMP working solution A.
The formula was used to calculate the percentage of signal activity per well=100%×(1−(average RLU of the test samples−average RLU of the MAX controls)/(average RLU of the solvent controls−average RLU of the MAX controls)). wherein, the MAX control referred to the fluorescence signal value of the endorphin solution, and the solvent control referred to the fluorescence signal value of DMSO. The DiscoveRx CBIS data analysis workstation (ChemInnovation, CA) was used to perform statistical analysis of the percentage of signal activity and the concentration of the compounds by the agonist formula (comes with the software, universal) to calculate the EC50 value.

Series [2] concerns the target T3, β-arrestin signaling pathway of MOR (Homo sapiens, UniProt P35372).
T3 construct: host or cells: HEK293 (PathHunter cell line)
Nature of the series: cell-based. The conditions noted are these: PathHunter HEK293 cells, relative to endorphin MAX control.

A further series deals with SD rats. Nature of the series: Respiratory depression in rats, arterial blood gas PCO2. The series is classed as in vivo. The note with it: for PCO2, 5 min before administration: arterial blood; for PCO2, 5 min after administration / PCO2, 30 min after administration / PCO2, 60 min after administration / PCO2, 120 min after administration: intravenous single dose 0.3 mg/kg (morphine 24 mg/kg). The text has this: 8-week-old male SD rats weighing 200 g-300 g were used as experimental animals to determine the effect of the compound of Example H05, the compound of Example H08, the compound of Example H10, the compound of Example H16, the compound of Example H17, the compound of Example H18, the compound of Example H21, and the compound of Example H24 on the partial pressure of blood in rats after intravenous administration. The effects of the compounds of the invention on respiratory depression were investigated.
After the rats were acclimatized to the experimental environment for 3 days, each animal was anesthetized with sodium pentobarbital (50-60 mg/kg, ip), and then the right common carotid artery was isolated and the unilateral carotid artery tube-bury surgery was performed (PE60, ID*OD*length as 0.76 mm*1.22 mm*20 cm, buried into the artery 1 cm deep, and the tube was filled with heparin sodium tube sealing solution).

The nature of series [3]: Pharmacokinetic test in rats, intravenous. The series is classed as in vivo. The conditions noted are these: male, SD, rat, plasma, intravenous 1 mg/kg; for AUC: read-out: curve area (AUC); for half-life: read-out: half life (T½) (converted); for Cmax: read-out: plasma concentration (Cmax). The text has this: 8-week-old male SD rats weighing 200-300 g were used as experimental animals, and LC/MS/MS method was used to determine the drug concentration in plasma at different times after the administration of the compound of Example H01, the compound of Example H04, the compound of Example H05, the compound of Example H07, the compound of Example H16, the compound of Example H17, the compound of Example H18, the compound of Example H21, and the compound of Example H24. The pharmacokinetic behavior of the compounds of the present invention in rats was studied, and its pharmacokinetic characteristics were evaluated.
A certain amount of the compounds were weighed, and dissolved in ethanol/castor oil/water=10/10/80 to form a uniform solution.
The above compounds were administered intravenously to rats at a dose of 1 mg/kg, and 0.2 ml of blood was collected from the orbit at 0.083, 0.25, 0.5, 1.0, 2.0, 4.0, 6.0, 8.0, 12.0, 24.0 hours before and after administration, and placed in an anticoagulant tube, the plasma was separated by centrifugation at 6,000 rpm for 10 minutes at 4° C., and stored at −80° C.
50 μL of plasma was taken at different times, 150 μL of acetonitrile solution containing internal standard tolbutamide (200 ng/mL) was added, the system was mixed and shaked for 5 minutes, 12000 rpm, centrifuged for 5 minutes, 100 μL of supernatant was removed, and then mixed with 200 μL of water, then the sample was loaded for analysis. The internal standard tolbutamide solid (Aladdin, T129578) powder was dissolved in DMSO to prepare into a 1 mg/mL stock solution. The stock solution was diluted with 100% acetonitrile to obtain a solution of 200 ng/mL as a protein precipitator.
The liquid chromatography system was an LC-20AD UFLC high performance liquid chromatography system (Shimadzu, LC-20AD). The mass spectrometry system was an AB Sciex API4000 triple quadrupole mass spectrometer equipped with an electrospray ionization source (ESI) (Applied Biosystems, Canada). The software used to control the liquid-mass coanalyzer and quantitative analysis was Analyst 1.6 (Applied Biosystems, Canada), and the pharmacokinetic parameters were analyzed using WinNonlin (version 5.2, Pharsight, Mountain View, Calif.) non-compartment model.
Liquid chromatographic separation was performed using AQ-C18 column (50×2.1 mm, internal diameter of […]). The column temperature was maintained at room temperature.
The compound to be tested was dissolved in DMSO to prepare a stock solution with a concentration of 1 mg/mL, and diluted with 70% acetonitrile to obtain a series of standard working solutions with concentrations of 30, 10, 3, 1, 0.3, 0.1, 0.03, and 0.01. μg/mL, and a series of standard quality control solutions (24, 8 and 0.03 μg/mL). 5 μL of standard solution and 45 μL of blank plasma matrix were mixed uniformity to obtain standard solutions (3000, 1000, 300, 100, 30, 10, 3, and 1 ng/mL) and quality control standards (plasma samples: 2400, 800, 80, and 3 ng/mL) at each concentration point of the standard curve.

This note sets out measurements from patent publication US11072601B2, “μ-opioid receptor agonist and preparation method therefor and use thereof in field of medicine” (SHANGHAI SYNERGY PHARMACEUTICAL SCIENCES CO., LTD., priority 2017, dated 2021).

T1 sequence (P35372 whole entry, species assumed): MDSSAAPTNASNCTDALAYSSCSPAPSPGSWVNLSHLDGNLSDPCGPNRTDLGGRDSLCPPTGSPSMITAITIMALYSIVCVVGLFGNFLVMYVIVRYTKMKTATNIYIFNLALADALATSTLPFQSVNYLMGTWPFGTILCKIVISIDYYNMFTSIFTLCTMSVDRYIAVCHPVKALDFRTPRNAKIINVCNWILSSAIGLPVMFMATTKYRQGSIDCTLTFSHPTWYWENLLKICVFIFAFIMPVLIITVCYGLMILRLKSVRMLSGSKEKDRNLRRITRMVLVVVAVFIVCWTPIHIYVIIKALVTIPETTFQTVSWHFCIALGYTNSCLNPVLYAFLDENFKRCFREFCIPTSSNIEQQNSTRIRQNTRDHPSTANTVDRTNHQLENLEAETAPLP
T2 sequence (P35372 whole entry): as the sequence (P35372 whole entry, species assumed) above
T3 sequence (P35372 whole entry): as the sequence (P35372 whole entry, species assumed) above

Regarding `Clc1ccsc1CNCCC1(c2ccccn2)CCOC2(CCCC2)C1` (stereo not shown) [Example H05, ((3-chloro-thiophen-2-yl)methyl)-[2-(9-(pyridin-2-yl)-6-oxaspiro[4.5]decan-9-yl)ethyl]amine], at μ opioid receptor (MOR), the half-maximal effective concentration (EC50) (as a rule, the concentration that produces a half-maximal response) was 7.05 nM. For the same compound, the EC50 in series [1] was determined as 10.2 nM. The Emax (as a rule, the size of the effect at its maximum, as opposed to the concentration needed) in series [2] amounted to 0%. Moreover, in the series on SD rats, the “PCO2, 5 min before administration” value amounted to 35.65 ± 0.44 mmHg; the “PCO2, 5 min after administration” value is 36.15 ± 1.93 mmHg; the “PCO2, 30 min after administration” value was 33.65 ± 0.49 mmHg; the “PCO2, 60 min after administration” value was determined as 34.85 ± 0.43 mmHg. Besides, the “PCO2, 120 min after administration” value in the series on SD rats amounted to 35.7 ± 0.95 mmHg. Besides, in series [3], the AUC (in general, the area under the concentration-time curve, a measure of exposure) amounted to 336 ± 14.1 ng·h/mL; the half-life (usually the time in which the quantity being followed falls by half) is 3.93 ± 0.13 h; the Cmax was 261 ± 21 ng/mL.

`FC(F)(F)Oc1cccc(CNCCC2(c3ccccn3)CCOC3(CCCC3)C2)c1` (stereo not shown) [Example H01, (3-trifluoromethoxybenzyl)-[2-(9-(pyridin-2-yl)-6-oxaspiro[4.5]decan-9-yl)ethyl]amine]: the EC50 at μ opioid receptor (MOR) was 6.71 nM. In addition, in series [1], the concentration for a half-maximal effect (EC50) was determined as 4.93 nM. For the same compound, in series [2], the maximal response (Emax) is 6.26%. For the same compound, in series [3], the AUC came to 295 ± 1 ng·h/mL, the half-life is 1.11 ± 0.24 h and the Cmax is 202 ± 33.5 ng/mL.

On to `Cc1ccc(CNCCC2(c3ccccn3)CCOC3(CCCC3)C2)cc1C` (stereo not shown) [Example H07, (3,4-dimethylbenzyl)-[2-(9-(pyridin-2-yl)-6-oxaspiro[4.5]decan-9-yl)ethyl]amine], for which the EC50 on μ opioid receptor (MOR) was found to be 3.15 nM. For the same compound, the EC50 in series [1] worked out at 3.08 nM. Also, in series [2], the Emax was determined as 1.55%. For the same compound, in series [3], the exposure (AUC) stood at 583 ± 31.8 ng·h/mL, the half-life is 1.25 ± 0.05 h and the Cmax is 483 ± 33.3 ng/mL.

Take `Cc1ccc(CNCCC2(c3ccccn3)CCOC3(CCCC3)C2)c(C)c1` (stereo not shown) [Example H08, (2,4-dimethylbenzyl)-[2-(9-(pyridin-2-yl)-6-oxaspiro[4.5]decan-9-yl)ethyl]amine]: on μ opioid receptor (MOR), the EC50 is 3.42 nM. Moreover, the 50% effective concentration (EC50) in series [1] is 4.77 nM. Moreover, the maximal response (Emax) in series [2] came out at 3.8%. In the series with SD rats, the “PCO2, 5 min before administration” value is given as 33.77 ± 0.88 mmHg; the “PCO2, 5 min after administration” value is reported as 35.48 ± 1.54 mmHg; the “PCO2, 30 min after administration” value was 34.03 ± 0.69 mmHg; the “PCO2, 60 min after administration” value was 34.27 ± 1.4 mmHg. The “PCO2, 120 min after administration” value in the series with SD rats is given as 34.83 ± 1.15 mmHg.

Consider `Oc1ccc(CNCCC2(c3ccccn3)CCOC3(CCCC3)C2)c(OC(F)(F)F)c1` (stereo not shown) [Example H15, 4-{[2-(9-(pyridin-2-yl)-6-oxaspiro[4.5]decan-9-yl)ethylamine]methyl}-3-trifluoromethoxyphenol], for which the figures for the EC50 (at μ opioid receptor (MOR); in series [1]) were 3.32 nM and 4.28 nM, respectively. In series [2], this compound yielded an Emax of 15.8%.

For `c1ccc(C2(CCN3CCc4ccsc4C3)CCOC3(CCCC3)C2)nc1` (stereo not shown) [Example H23, 6-[2-(9-pyridin-2-yl-6-oxa-spiro[4.5]decan-9-yl)-ethyl]-4,5,6,7-tetrahydro-thieno[2,3-c]pyridine], the half-maximal effective concentration (EC50) on μ opioid receptor (MOR) came to 4.08 nM; in series [1], 9.73 nM. The Emax in series [2] worked out at 2.2%.
